# Test results as given in ChEMBL document CHEMBL1130910, “Design of novel porphyrin-binding peptides based on antibody CDR” (Bioorg Med Chem Lett, 1998).
# Assays:
# [1] = Evaluated for binding constant with antigen meso-tetrakis (4-carboxyphenyl)porphyrin (TCPP) at 20% methanol content.
# [2] = Evaluated for binding constant with antigen meso-tetrakis (4-carboxyphenyl)porphyrin (TCPP) at 5% methanol content.
# [3] = Evaluated for binding constant with antigen meso-tetrakis (4-carboxyphenyl)porphyrin (TCPP) at 35% methanol content.
# [4] = Evaluated for binding constant with antigen meso-tetrakis (4-carboxyphenyl)porphyrin (TCPP) at 40% methanol content.
# [5] = Evaluated for binding constant with antigen meso-tetrakis (4-carboxyphenyl)porphyrin (TCPP) at 0% methanol content.
# [6] = Evaluated for binding constant with antigen meso-tetrakis (4-carboxyphenyl)porphyrin (TCPP) at 30% methanol content.
# [7] = Evaluated for binding constant with antigen meso-tetrakis (4-carboxyphenyl)porphyrin (TCPP) at 15% methanol content.
structure (smiles),measurement,setting,value
CC[C@H](C)[C@H](NC(=O)[C@H](CCCN=C(N)N)NC(=O)CNC(=O)Cc1ccc2ccc3cccc4ccc1c2c34)C(=O)N[C@H]1CSSC[C@H](C(=O)N[C@H](C(=O)N[C@@H](CCCCN)C(=O)N[C@@H](Cc2ccc(O)cc2)C(N)=O)[C@H](C)O)NC(=O)CNC(=O)[C@H](CC(N)=O)NC(=O)[C@@H](C)NC(=O)[C@@H]2CCCN2C1=O,Ka,[1],140000 M⁻¹
same,Ka,[2],420000 M⁻¹
same,Ka,[3],15000 M⁻¹
same,Ka,[4],9700 M⁻¹
same,Ka,[5],680000 M⁻¹
same,Ka,[6],70000 M⁻¹
same,Ka,[7],260000 M⁻¹
